ChEMBL document CHEMBL1132762, “RGD mimetics containing a central hydantoin scaffold: alpkha(v)beta3 vs alpha(IIb)beta3 selectivity requirements” (Bioorg Med Chem Lett, 2000)

Experiments:
Integrin alpha-V/beta-3 = Integrin alpha-V/beta-3 (Homo sapiens, UniProt P05106+P06756); test: Inhibition of Kistrin binding to integrin alphaV-beta3; format: protein-complex assay
[1] = target: Integrin alpha-IIb/beta-3 (Homo sapiens, UniProt P05106+P08514); test: Inhibition of fibrinogen binding to integrin alphaIIb-beta3; format: protein-complex assay
Chain of Integrin alpha-IIb/beta-3 (P05106 27-788 limits assumed): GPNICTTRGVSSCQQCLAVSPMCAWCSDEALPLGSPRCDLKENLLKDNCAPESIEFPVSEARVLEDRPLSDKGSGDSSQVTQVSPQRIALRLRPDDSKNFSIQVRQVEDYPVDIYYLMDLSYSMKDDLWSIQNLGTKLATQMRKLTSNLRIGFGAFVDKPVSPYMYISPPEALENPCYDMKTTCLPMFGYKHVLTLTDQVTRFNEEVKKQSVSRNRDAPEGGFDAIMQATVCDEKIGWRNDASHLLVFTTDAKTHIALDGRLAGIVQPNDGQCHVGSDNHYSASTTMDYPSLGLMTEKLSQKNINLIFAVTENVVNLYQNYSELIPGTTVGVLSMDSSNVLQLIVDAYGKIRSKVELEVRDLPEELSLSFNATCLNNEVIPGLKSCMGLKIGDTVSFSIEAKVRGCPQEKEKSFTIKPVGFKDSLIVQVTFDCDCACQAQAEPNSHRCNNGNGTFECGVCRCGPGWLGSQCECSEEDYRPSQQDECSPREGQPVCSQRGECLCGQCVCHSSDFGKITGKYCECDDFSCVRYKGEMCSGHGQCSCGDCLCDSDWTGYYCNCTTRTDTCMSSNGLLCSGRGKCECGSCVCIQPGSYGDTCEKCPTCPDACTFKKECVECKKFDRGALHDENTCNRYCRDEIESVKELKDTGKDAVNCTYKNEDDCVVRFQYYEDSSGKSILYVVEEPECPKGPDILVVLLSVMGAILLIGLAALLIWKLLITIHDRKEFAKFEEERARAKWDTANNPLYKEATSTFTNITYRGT
Chain of Integrin alpha-IIb/beta-3 (P08514 32-887 limits assumed): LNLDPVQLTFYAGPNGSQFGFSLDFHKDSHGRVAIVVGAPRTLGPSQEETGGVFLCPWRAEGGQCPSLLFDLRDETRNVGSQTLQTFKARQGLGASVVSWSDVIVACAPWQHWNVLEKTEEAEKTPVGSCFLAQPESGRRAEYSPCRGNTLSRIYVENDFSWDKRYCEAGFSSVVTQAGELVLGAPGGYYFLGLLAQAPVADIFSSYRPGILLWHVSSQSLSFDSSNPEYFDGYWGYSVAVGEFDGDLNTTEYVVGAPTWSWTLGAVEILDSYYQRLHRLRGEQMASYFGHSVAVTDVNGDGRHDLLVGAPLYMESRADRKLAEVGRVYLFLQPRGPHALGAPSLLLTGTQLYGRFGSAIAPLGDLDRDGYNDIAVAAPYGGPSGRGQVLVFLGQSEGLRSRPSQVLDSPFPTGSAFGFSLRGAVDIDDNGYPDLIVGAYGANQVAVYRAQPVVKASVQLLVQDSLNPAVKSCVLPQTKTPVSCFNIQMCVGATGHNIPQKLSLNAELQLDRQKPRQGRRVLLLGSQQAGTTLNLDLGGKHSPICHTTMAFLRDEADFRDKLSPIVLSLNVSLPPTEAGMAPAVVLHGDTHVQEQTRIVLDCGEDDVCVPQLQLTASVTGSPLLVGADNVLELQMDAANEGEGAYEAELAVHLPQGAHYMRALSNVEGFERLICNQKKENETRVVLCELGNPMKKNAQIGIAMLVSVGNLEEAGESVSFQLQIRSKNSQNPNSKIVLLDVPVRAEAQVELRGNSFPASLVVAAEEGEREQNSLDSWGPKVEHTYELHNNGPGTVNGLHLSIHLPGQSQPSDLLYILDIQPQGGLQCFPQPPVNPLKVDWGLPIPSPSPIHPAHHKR
Chain of Integrin alpha-IIb/beta-3 (P08514 891-1039 limits assumed): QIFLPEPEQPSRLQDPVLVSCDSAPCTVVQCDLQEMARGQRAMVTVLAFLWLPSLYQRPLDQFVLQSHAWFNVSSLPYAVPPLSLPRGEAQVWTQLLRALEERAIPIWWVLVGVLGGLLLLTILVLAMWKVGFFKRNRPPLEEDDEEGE

Chain of Integrin alpha-V/beta-3 (P05106 27-788 limits assumed): as the sequence (P05106 27-788 limits assumed) above
Chain of Integrin alpha-V/beta-3 (P06756 31-889 limits assumed): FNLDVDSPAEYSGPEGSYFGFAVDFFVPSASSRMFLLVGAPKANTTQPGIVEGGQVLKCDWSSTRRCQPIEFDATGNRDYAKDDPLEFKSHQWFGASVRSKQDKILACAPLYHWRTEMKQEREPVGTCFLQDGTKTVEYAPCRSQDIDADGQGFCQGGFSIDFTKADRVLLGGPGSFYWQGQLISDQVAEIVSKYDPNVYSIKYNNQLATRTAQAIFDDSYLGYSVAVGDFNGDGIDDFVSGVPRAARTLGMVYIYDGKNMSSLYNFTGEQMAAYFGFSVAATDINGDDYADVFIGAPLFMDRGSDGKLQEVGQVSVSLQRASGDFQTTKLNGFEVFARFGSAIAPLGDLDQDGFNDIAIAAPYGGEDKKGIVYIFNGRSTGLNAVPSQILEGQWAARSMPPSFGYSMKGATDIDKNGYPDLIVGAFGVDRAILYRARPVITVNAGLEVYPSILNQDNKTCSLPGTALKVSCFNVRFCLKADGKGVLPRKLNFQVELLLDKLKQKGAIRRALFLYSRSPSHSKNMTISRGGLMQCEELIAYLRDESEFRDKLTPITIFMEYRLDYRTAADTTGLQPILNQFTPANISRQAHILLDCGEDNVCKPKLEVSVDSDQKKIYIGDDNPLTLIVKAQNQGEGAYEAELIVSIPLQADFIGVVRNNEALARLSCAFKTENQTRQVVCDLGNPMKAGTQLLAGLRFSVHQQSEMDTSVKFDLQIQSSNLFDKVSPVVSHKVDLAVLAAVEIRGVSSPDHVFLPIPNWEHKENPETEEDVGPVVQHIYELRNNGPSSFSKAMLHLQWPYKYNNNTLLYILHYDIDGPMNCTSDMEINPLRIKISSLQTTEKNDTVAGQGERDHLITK
Chain of Integrin alpha-V/beta-3 (P06756 891-1048 limits assumed): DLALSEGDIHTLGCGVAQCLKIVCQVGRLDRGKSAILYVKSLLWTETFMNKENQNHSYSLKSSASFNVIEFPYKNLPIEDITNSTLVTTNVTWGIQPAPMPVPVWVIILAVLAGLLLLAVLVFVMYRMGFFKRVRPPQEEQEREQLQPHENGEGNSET

| SMILES | IC50 (Integrin alpha-V/beta-3) | IC50 [1] |
| --- | --- | --- |
| O=C(C[C@@H]1NC(=O)N(CC(=O)NCC(NC(=O)OCc2ccccc2)C(=O)O)C1=O)NCc1nc2ccccc2[nH]1 (some centres not stated) | 15000 nM | – |
| CCCCS(=O)(=O)NC(CNC(=O)CN1C(=O)N[C@@H](CCCN=C(N)N)C1=O)C(=O)O (some centres not stated) | 760 nM | 350 nM |
| N=C(N)NCCC[C@@H]1NC(=O)N(CC(=O)NCC(NC(=O)c2ccc3ccccc3c2)C(=O)O)C1=O (some centres not stated) | 200 nM | 200 nM |
| N=C(N)NCCC[C@@H]1NC(=O)N(CC(=O)NCC(NC(=O)NCc2ccccc2)C(=O)O)C1=O (some centres not stated) | 570 nM | 180 nM |
| N=C(N)NCCC[C@@H]1NC(=O)N(CC(=O)NCC(NC(=O)CCc2ccccc2)C(=O)O)C1=O (some centres not stated) | 350 nM | 550 nM |
| N=C(N)NCCC[C@@H]1NC(=O)N(CC(=O)NCC(/N=C(\S)NCc2ccccc2)C(=O)O)C1=O (some centres not stated) | 3000 nM | 10000 nM |

Other lines, results leading:

| IC50 (Integrin alpha-V/beta-3) | IC50 [1] | SMILES |
| --- | --- | --- |
| 15000 nM | 10000 nM | N=C(N)NC[C@@H]1NC(=O)N(CC(=O)NCC(NC(=O)OCc2ccccc2)C(=O)O)C1=O (some centres not stated) |
| 580 nM | > 10000 nM | O=C(CN1C(=O)N[C@@H](CC(=O)NNC2=NCCN2)C1=O)NCC(NC(=O)OCc1ccccc1)C(=O)O (some centres not stated) |
| 1660 nM | > 10000 nM | O=C(CN1C(=O)N[C@@H](CCCNc2ncccn2)C1=O)NCC(NC(=O)OCc1ccccc1)C(=O)O (some centres not stated) |
| 80 nM | 2400 nM | N=C(N)NCCC[C@@H]1NC(=O)N(CC(=O)NCC(NC(=O)OCc2ccccc2)C(=O)O)C1=O (some centres not stated) |
| 20 nM | > 10000 nM | O=C(CN1C(=O)N[C@@H](CCCNC2=NCCN2)C1=O)NCC(NC(=O)OCc1ccccc1)C(=O)O (some centres not stated) |
| 5000 nM | 10000 nM | N=C(N)NCC[C@@H]1NC(=O)N(CC(=O)NCC(NC(=O)OCc2ccccc2)C(=O)O)C1=O (some centres not stated) |
| 40 nM | > 10000 nM | O=C(CN1C(=O)N[C@@H](CCCNc2nc3ccccc3[nH]2)C1=O)NCC(NC(=O)OCc1ccccc1)C(=O)O (some centres not stated) |
| 200 nM | 850 nM | N=C(N)NCCCC[C@@H]1NC(=O)N(CC(=O)NCC(NC(=O)OCc2ccccc2)C(=O)O)C1=O (some centres not stated) |
